Here are results for three compounds from publication PMC11822212, “High-throughput screening identifies Aurora kinase B as a critical therapeutic target for Merkel cell carcinoma” (Nature Communications, 2025).

For one test, the system named is HACAT cells. Description: qHTS cell viability (CellTiter-Glo, 72 h; primary screen), control cell line. In kind it is cell-based, human. The conditions noted are these: NPC library. (In general: In qHTS, concentration-response curves come from the screen itself.)
For a further test, the system named is MCC13 cells (VN-MCC). The test is described as follows: qHTS cell viability (CellTiter-Glo, 72 h; primary and follow-up small molecule screen). It counts as cell-based, human. The settings on record: NPC library.
A further test has as its system MKL-2 cells (VP-MCC). The description is as above. In kind it is cell-based, human. The settings on record: NPC library.
Another test deals with WAGA cells (VP-MCC). Described as above. In kind it is cell-based, human. The settings on record: NPC library.
The subject of test [1] is MCC cell lines (WAGA, MKL-1, MKL-2, MCC13, MCC26, UISO). Description: qHTS cell viability, all six MCC cell lines as a group (mean AUC, MCC.avg). The settings on record: NPC library; mean AUC of six MCC cell lines. In kind it is cell-based, human.
The test system of a further test is CRL-7250 cells. The test is described as follows: qHTS cell viability (CellTiter-Glo, 72 h; primary screen), control cell line. It counts as cell-based. The settings on record: NPC library.
The subject of the next test is MCC26 cells (VN-MCC). Description: qHTS cell viability (CellTiter-Glo, 72 h; primary and follow-up small molecule screen). It counts as cell-based, human. The conditions noted are these: NPC library.
In the next test the test system is HEK293T cells. The test is described as follows: qHTS cell viability (CellTiter-Glo, 72 h; primary screen), control cell line. In kind it is cell-based, human. The conditions noted are these: NPC library.
The subject of test [2] is VP-MCC cell lines (WAGA, MKL-1, MKL-2). Description: qHTS cell viability, VP-MCC cell lines as a group (mean AUC, VP.MCC.avg). It counts as cell-based, human. The conditions noted are these: NPC library; for VP-MCC_Avg_AUC: mean AUC of VP-MCC cell lines.
The next test deals with MKL-1 cells (VP-MCC). Description: qHTS cell viability (CellTiter-Glo, 72 h; primary and follow-up small molecule screen). In kind it is cell-based, human. The settings on record: NPC library.
Another test deals with NIH-3T3 cells. Description: qHTS cell viability (CellTiter-Glo, 72 h; primary screen), control cell line. It counts as cell-based, mouse. The settings on record: NPC library.
The subject of test [3] is six MCC cell lines and four control cell lines. The test is described as follows: qHTS cell viability, all 10 cell lines screened. In kind it is cell-based. The settings on record: NPC library.
Test [4] deals with control cell lines (HACAT, HEK293T, CRL-7250, NIH-3T3). Description: qHTS cell viability, control cell lines as a group (mean AUC, Control.avg). It counts as cell-based. The conditions noted are these: NPC library; mean AUC of control cell lines.
Test [5] relates to VN-MCC cell lines (MCC13, MCC26, UISO). The test is described as follows: qHTS cell viability, VN-MCC cell lines as a group (mean AUC, VN.MCC.avg). The settings on record: NPC library; for VN-MCC_Avg_AUC: mean AUC of VN-MCC cell lines. It counts as cell-based, human.
For the next test, the system named is UISO cells (VN-MCC). Description: qHTS cell viability (CellTiter-Glo, 72 h; primary and follow-up small molecule screen). In kind it is cell-based, human. The conditions noted are these: NPC library.
Setting [6] is: 8-point DRC, area under dose-response curve.
Setting [7] is: qHTS dose-response AUC, HACAT control.
The mark [8] stands for this setting: qHTS dose-response AUC, CRL7250 control.
The mark [9] stands for this setting: qHTS dose-response AUC, HEK293T control.
[10] abbreviates: therapeutic window: Control avg AUC minus VP-MCC avg AUC.
The mark [11] stands for this setting: qHTS dose-response AUC, NIH3T3 control.
[12] abbreviates: therapeutic window: Control avg AUC minus MCC avg AUC.
Where [13] appears, read: therapeutic window: Control avg AUC minus VN-MCC avg AUC.

Each structure is given as a SMILES string.

With `Oc1ccc(C2CNCCc3c2cc(O)c(O)c3Cl)cc1` (stereo not drawn) [Fenoldopam], the HACAT_AUC with HACAT cells (8-point DRC, control cell line) is given as 491.95. The compound further displayed an MCC13_AUC with MCC13 cells (VN-MCC) (setting [6]) of 446.053. This compound returned an MKL2_AUC with MKL-2 cells (VP-MCC) (setting [6]) of 452.751. In the test on WAGA cells (VP-MCC) (setting [6]), this compound yielded a WAGA_AUC of 438.933. This compound displayed an MCC_Avg_AUC in test [1] of 444.271. Moreover, the CRL7250_AUC in the test on CRL-7250 cells (8-point DRC, control cell line) is given as 492.55. The compound further returned an MCC26_AUC with MCC26 cells (VN-MCC) (setting [6]) of 437.226. Further, the HEK293T_AUC with HEK293T cells (8-point DRC, control cell line) was 492.113. In test [2] (Control AUC minus VP-MCC AUC (therapeutic window)), the Control-VP-MCC is reported as 43.713. This compound had a VP-MCC_Avg_AUC in test [2] of 447.83. The MKL1_AUC in the test on MKL-1 cells (VP-MCC) (setting [6]) came to 451.807. In the test with NIH-3T3 cells (8-point DRC, control cell line), this compound registered an NIH3T3_AUC of 489.56. The same compound came in with a Control-MCC in test [3] (Control AUC minus MCC AUC (therapeutic window)) of 47.2727. Further, the Control_Avg_AUC in [4] was 491.543. In test [5] (Control AUC minus VN-MCC AUC (therapeutic window)), this compound had a Control-VN-MCC of 50.8323. In [5], this compound yielded a VN-MCC_Avg_AUC of 440.711. In the test with UISO cells (VN-MCC) (setting [6]), this compound registered a UISO_AUC of 438.854.

For `OCCN1CCN(CCCN2c3ccccc3Sc3ccc(C(F)(F)F)cc32)CC1` [Fluphenazine], the HACAT_AUC in the test on HACAT cells (setting [7]) came to 491.426. This compound also gave an MCC13_AUC in the test with MCC13 cells (VN-MCC) (qHTS dose-response AUC, MCC13) of 444.309. For the same compound, the MKL2_AUC in the test on MKL-2 cells (VP-MCC) (qHTS dose-response AUC, MKL2) is reported as 399.652. For the same compound, the WAGA_AUC in the test on WAGA cells (VP-MCC) (qHTS dose-response AUC, WAGA) turned out to be 435.377. Moreover, in [1], the MCC_Avg_AUC is 427.186. The CRL7250_AUC with CRL-7250 cells (setting [8]) stood at 486.675. This compound also gave an MCC26_AUC in the test on MCC26 cells (VN-MCC) (qHTS dose-response AUC, MCC26) of 425.402. Moreover, the HEK293T_AUC with HEK293T cells (setting [9]) is recorded as 438.571. This compound also yielded a VP-MCC_Avg_AUC in test [2] of 423.354. In test [2] (setting [10]), this compound returned a Control-VP-MCC of 50.0066. Besides, the MKL1_AUC in the test with MKL-1 cells (VP-MCC) (qHTS dose-response AUC, MKL1) turned out to be 435.034. The compound further registered an NIH3T3_AUC with NIH-3T3 cells (setting [11]) of 476.772. The same compound displayed a Control-MCC in [3] (setting [12]) of 46.1748. Further, the Control_Avg_AUC in test [4] was determined as 473.361. Moreover, the VN-MCC_Avg_AUC in [5] is 431.018. Besides, the Control-VN-MCC in test [5] (setting [13]) is on record as 42.343. This compound also showed a UISO_AUC in the test on UISO cells (VN-MCC) (qHTS dose-response AUC, UISO) of 423.342.

For the compound `Cl.Cl.Fc1ccc(C(OCCN2CCN(CCCc3ccccc3)CC2)c2ccc(F)cc2)cc1` [GBR 12909 dihydrochloride], the HACAT_AUC with HACAT cells (setting [7]) is 461.158. In addition, in the test with MCC13 cells (VN-MCC) (qHTS dose-response AUC, MCC13), the MCC13_AUC turned out to be 436.239. The MKL2_AUC in the test on MKL-2 cells (VP-MCC) (qHTS dose-response AUC, MKL2) was found to be 375.344. In the test on WAGA cells (VP-MCC) (qHTS dose-response AUC, WAGA), this compound had a WAGA_AUC of 399.59. In test [1], this compound had an MCC_Avg_AUC of 400.618. In addition, in the test on CRL-7250 cells (setting [8]), the CRL7250_AUC was 454.771. In addition, in the test on MCC26 cells (VN-MCC) (qHTS dose-response AUC, MCC26), the MCC26_AUC is recorded as 404.643. In the test on HEK293T cells (setting [9]), this compound displayed an HEK293T_AUC of 425.616. Moreover, the VP-MCC_Avg_AUC in [2] came out at 392.686. The same compound showed a Control-VP-MCC in test [2] (setting [10]) of 51.7231. The compound also registered an MKL1_AUC with MKL-1 cells (VP-MCC) (qHTS dose-response AUC, MKL1) of 403.123. In addition, in the test on NIH-3T3 cells (setting [11]), the NIH3T3_AUC came out at 436.091. The compound further had a Control-MCC in [3] (setting [12]) of 43.7909. In addition, in test [4], the Control_Avg_AUC was found to be 444.409. For the same compound, the VN-MCC_Avg_AUC in test [5] is given as 408.55. The Control-VN-MCC in test [5] (setting [13]) is reported as 35.8586. Besides, the UISO_AUC with UISO cells (VN-MCC) (qHTS dose-response AUC, UISO) came to 384.769.
